Measured values reported in US6358998B1, “Body fat-reducing agent comprising dioxabicyclo[3.3.0] octane derivative as active ingredient” (Rinoru Oil Mills Co., LTD, priority 1999, dated 2002).

Tests used:
[1] = tested on: fat tissues of rats; test: Example 1: four-week feeding of experimental diet to rats, organ and fat tissue weights; format: in vivo, rat; details: Sprague-Dawley male rats, four weeks of feeding, compared with the control group
Text: Sprague-Dawley male rats of four weeks of age were acclimatized, and then divided into three groups (each group consisting of 8 rats), a 1.0% linoleic acid group (a control group), 0.2% sesamin group, and 0.2% sesamin+1.0% CLA group. The experimental diet shown in Table 1 and water were then freely fed to these three groups of rats. […] Four weeks after the initiation of feeding, the 8 rats constituting each group were scarified, and the organs were taken out.

[2] = tested on: perfused liver; test: Example 2: liver perfusion experiment, triglyceride secretion; format: in vivo, rat; details: Sprague-Dawley male rats, three weeks of feeding, compared with the control group
Text: Sprague-Dawley male rats of four weeks of age were acclimatized for 5 to 11 days, and then divided into three groups (each group consisting of 5 rats), a 1.0% linoleic acid group (a control group), 0.2% sesamin group, and 0.2% sesamin+1.0% CLA group. In the experiment, CE-2 (lipid content 4.5%) manufactured by CLEA JAPAN INC. with 1.5% of a soybean oil being added thereto was used as a basic diet, and the experimental diet was freely fed to the rats. […] Three weeks after the initiation of feeding, a liver perfusion experiment was carried out.

c1cc2c(cc1[C@H]1OC[C@H]3[C@@H]1CO[C@@H]3c1ccc3c(c1)OCO3)OCO2 [Sesamin, sesamin]
reduced: weight of fat tissues around epididymis [1] | weight of fat tissues around kidney [1] | amount of triglyceride secreted from the perfused liver [2]
